Consider five molecules from the supplement of paper PMC10307832.

The test system of the first test is NCI-H1944. The experiment in a line: relative viability (nuclei count vs DMSO), 5 days (fraction); higher = more cells survive. The following applies: first compound 0.253 µM. The procedure, abridged:
(§1)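 Relative viability divides the nuclei count in treated wells by that in vehicle wells. Lung cancer cell lines were seeded in 1536-well plates, dosed by pin tool the next day, and fixed and stained after 5 days in one step with final 0.05% Triton X-100, 1% formaldehyde and 1 ug/ml Hoechst. Dosing was a single drug or a fixed anchor-drug dose plus five library-drug doses (not always all listed) in √10 steps, and values are medians of duplicate plates imaged at 4×.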
`Nc1cccc2c1CN(C1CCC(=O)NC1=O)C2=O` (stereo not given) [Lenalidomide] + CC(=O)c1c(C)c2cnc(Nc3ccc(N4CCNCC4)cn3)nc2n(C2CCCC2)c1=O [Palbociclib] (partner 0.5 µM) had a relative viability of 0.364.

Still in this test, the particulars now being: first compound 0.8 µM.
In the case of `Nc1cccc2c1CN(C1CCC(=O)NC1=O)C2=O` (stereo not given) [Lenalidomide] + CCNC(=O)c1noc(-c2cc(C(C)C)c(O)cc2O)c1-c1ccc(CN2CCOCC2)cc1 [Luminespib] (partner 0.01 µM), the relative viability was 0.777.
Turning to `Nc1cccc2c1CN(C1CCC(=O)NC1=O)C2=O` (stereo not given) [Lenalidomide] + Cc1nc(Nc2ncc(C(=O)Nc3c(C)cccc3Cl)s2)cc(N2CCN(CCO)CC2)n1 [Dasatinib] (partner 0.075 µM), the relative viability turned out to be 0.251.
The molecule `Nc1cccc2c1CN(C1CCC(=O)NC1=O)C2=O` (stereo not given) [Lenalidomide] + N=C(N)NC(=N)NCCc1ccccc1 [Phenformin] (partner 250 µM) displayed a relative viability of 0.191.

Staying with this test, now noted: first compound 2.53 µM.
Turning to `Nc1cccc2c1CN(C1CCC(=O)NC1=O)C2=O` (stereo not given) [Lenalidomide] + CCNC(=O)c1noc(-c2cc(C(C)C)c(O)cc2O)c1-c1ccc(CN2CCOCC2)cc1 [Luminespib] (partner 0.01 µM), the relative viability was 0.871.
Same read-out and setting: under `Nc1cccc2c1CN(C1CCC(=O)NC1=O)C2=O` (stereo not given) [Lenalidomide] + Nc1ncn([C@H]2C[C@H](O)[C@@H](CO)O2)c(=O)n1 [Decitabine] (partner 2 µM) stands 0.457.
Still for that read-out and setting: under `Nc1cccc2c1CN(C1CCC(=O)NC1=O)C2=O` (stereo not given) [Lenalidomide] + Cc1nc(Nc2ncc(C(=O)Nc3c(C)cccc3Cl)s2)cc(N2CCN(CCO)CC2)n1 [Dasatinib] (partner 0.075 µM) stands 0.208; under `Nc1cccc2c1CN(C1CCC(=O)NC1=O)C2=O` (stereo not given) [Lenalidomide] + N=C(N)NC(=N)NCCc1ccccc1 [Phenformin] (partner 250 µM), 0.223.
Same read-out and setting: under `Nc1cccc2c1CN(C1CCC(=O)NC1=O)C2=O` (stereo not given) [Lenalidomide] + CC(=O)c1c(C)c2cnc(Nc3ccc(N4CCNCC4)cn3)nc2n(C2CCCC2)c1=O [Palbociclib] (partner 0.5 µM) stands 0.342.

Still in this test, the particulars now being: first compound 8 µM.
Molecule `Nc1cccc2c1CN(C1CCC(=O)NC1=O)C2=O` (stereo not given) [Lenalidomide] + CCNC(=O)c1noc(-c2cc(C(C)C)c(O)cc2O)c1-c1ccc(CN2CCOCC2)cc1 [Luminespib] (partner 0.01 µM) showed a relative viability of 0.502.
The same measure, in the same setting: for `Nc1cccc2c1CN(C1CCC(=O)NC1=O)C2=O` (stereo not given) [Lenalidomide] + Nc1ncn([C@H]2C[C@H](O)[C@@H](CO)O2)c(=O)n1 [Decitabine] (partner 2 µM) the value was 0.393; for `Nc1cccc2c1CN(C1CCC(=O)NC1=O)C2=O` (stereo not given) [Lenalidomide] + Cc1nc(Nc2ncc(C(=O)Nc3c(C)cccc3Cl)s2)cc(N2CCN(CCO)CC2)n1 [Dasatinib] (partner 0.075 µM), 0.173.
On the same count and under the same terms, for `Nc1cccc2c1CN(C1CCC(=O)NC1=O)C2=O` (stereo not given) [Lenalidomide] + N=C(N)NC(=N)NCCc1ccccc1 [Phenformin] (partner 250 µM) the value was 0.174; for `Nc1cccc2c1CN(C1CCC(=O)NC1=O)C2=O` (stereo not given) [Lenalidomide] + CC(=O)c1c(C)c2cnc(Nc3ccc(N4CCNCC4)cn3)nc2n(C2CCCC2)c1=O [Palbociclib] (partner 0.5 µM), 0.27.

A further test concerns LXF-289. The description is as above. The following applies: first compound 0.253 µM. Put shortly:
as §1
Regarding `Nc1cccc2c1CN(C1CCC(=O)NC1=O)C2=O` (stereo not given) [Lenalidomide] + CCNC(=O)c1noc(-c2cc(C(C)C)c(O)cc2O)c1-c1ccc(CN2CCOCC2)cc1 [Luminespib] (partner 0.01 µM), the relative viability was determined as 0.799.
Same read-out and setting: for `Nc1cccc2c1CN(C1CCC(=O)NC1=O)C2=O` (stereo not given) [Lenalidomide] + Nc1ncn([C@H]2C[C@H](O)[C@@H](CO)O2)c(=O)n1 [Decitabine] (partner 2 µM) the value was 0.388; for `Nc1cccc2c1CN(C1CCC(=O)NC1=O)C2=O` (stereo not given) [Lenalidomide] + Cc1nc(Nc2ncc(C(=O)Nc3c(C)cccc3Cl)s2)cc(N2CCN(CCO)CC2)n1 [Dasatinib] (partner 0.075 µM), 0.235; for `Nc1cccc2c1CN(C1CCC(=O)NC1=O)C2=O` (stereo not given) [Lenalidomide] + N=C(N)NC(=N)NCCc1ccccc1 [Phenformin] (partner 250 µM), 0.536.
In turn, `Nc1cccc2c1CN(C1CCC(=O)NC1=O)C2=O` (stereo not given) [Lenalidomide] + CC(=O)c1c(C)c2cnc(Nc3ccc(N4CCNCC4)cn3)nc2n(C2CCCC2)c1=O [Palbociclib] (partner 0.5 µM) registered a relative viability of 0.616.

The test is the same for the next values; noted with them: first compound 0.8 µM.
For `Nc1cccc2c1CN(C1CCC(=O)NC1=O)C2=O` (stereo not given) [Lenalidomide] + CCNC(=O)c1noc(-c2cc(C(C)C)c(O)cc2O)c1-c1ccc(CN2CCOCC2)cc1 [Luminespib] (partner 0.01 µM), the relative viability came to 0.686.
`Nc1cccc2c1CN(C1CCC(=O)NC1=O)C2=O` (stereo not given) [Lenalidomide] + Nc1ncn([C@H]2C[C@H](O)[C@@H](CO)O2)c(=O)n1 [Decitabine] (partner 2 µM) registered a relative viability of 0.351.
Consider `Nc1cccc2c1CN(C1CCC(=O)NC1=O)C2=O` (stereo not given) [Lenalidomide] + Cc1nc(Nc2ncc(C(=O)Nc3c(C)cccc3Cl)s2)cc(N2CCN(CCO)CC2)n1 [Dasatinib] (partner 0.075 µM), for which the relative viability came out at 0.347.
Take `Nc1cccc2c1CN(C1CCC(=O)NC1=O)C2=O` (stereo not given) [Lenalidomide] + N=C(N)NC(=N)NCCc1ccccc1 [Phenformin] (partner 250 µM): the relative viability came out at 0.547.
Molecule `Nc1cccc2c1CN(C1CCC(=O)NC1=O)C2=O` (stereo not given) [Lenalidomide] + CC(=O)c1c(C)c2cnc(Nc3ccc(N4CCNCC4)cn3)nc2n(C2CCCC2)c1=O [Palbociclib] (partner 0.5 µM) yielded a relative viability of 0.63.

Still in this test, the particulars now being: first compound 2.53 µM.
The molecule `Nc1cccc2c1CN(C1CCC(=O)NC1=O)C2=O` (stereo not given) [Lenalidomide] + CCNC(=O)c1noc(-c2cc(C(C)C)c(O)cc2O)c1-c1ccc(CN2CCOCC2)cc1 [Luminespib] (partner 0.01 µM) showed a relative viability of 0.768.
Turning to `Nc1cccc2c1CN(C1CCC(=O)NC1=O)C2=O` (stereo not given) [Lenalidomide] + Nc1ncn([C@H]2C[C@H](O)[C@@H](CO)O2)c(=O)n1 [Decitabine] (partner 2 µM), the relative viability turned out to be 0.393.
`Nc1cccc2c1CN(C1CCC(=O)NC1=O)C2=O` (stereo not given) [Lenalidomide] + Cc1nc(Nc2ncc(C(=O)Nc3c(C)cccc3Cl)s2)cc(N2CCN(CCO)CC2)n1 [Dasatinib] (partner 0.075 µM) displayed a relative viability of 0.234.
Turning to `Nc1cccc2c1CN(C1CCC(=O)NC1=O)C2=O` (stereo not given) [Lenalidomide] + N=C(N)NC(=N)NCCc1ccccc1 [Phenformin] (partner 250 µM), the relative viability is 0.565.
The molecule `Nc1cccc2c1CN(C1CCC(=O)NC1=O)C2=O` (stereo not given) [Lenalidomide] + CC(=O)c1c(C)c2cnc(Nc3ccc(N4CCNCC4)cn3)nc2n(C2CCCC2)c1=O [Palbociclib] (partner 0.5 µM) displayed a relative viability of 0.657.

Staying with this test, now noted: first compound 8 µM.
`Nc1cccc2c1CN(C1CCC(=O)NC1=O)C2=O` (stereo not given) [Lenalidomide] + CCNC(=O)c1noc(-c2cc(C(C)C)c(O)cc2O)c1-c1ccc(CN2CCOCC2)cc1 [Luminespib] (partner 0.01 µM) had a relative viability of 0.725.
